Values belong to the molecule of their own block, whether it stands above or below them.
Legend:
K-Ras D92C = molecular target: T1, K-Ras D92C (Homo sapiens, UniProt P01116, D92C); assay: QQQ mass spectrometry competition assay for K-Ras D92C binding using competition probe CP-008; conditions: CP-008 (100 nM); test compound over a range of concentrations; incubated for 6 h; FIG. 6
T1 construct: made in house
Description: The GDP-loaded K-Ras D92C protein (which also contains a histidine tag) was diluted in a HEPES containing assay buffer shortly before use in the QQQ-assay.
To start the assay an internal nonreactive control compound and competition probe compound (CP-008) were added to the protein solution to form a master mix. The master mix was quickly dispersed in a 96-well plate followed by addition a DMSO stock of the compound of interest. […]
To quench the reaction, the reaction mix was transferred to 2% of formic acid in water (0.2% final in the quenched reaction) in a second plate. After sealing the second plate and quick centrifugation the samples were frozen at −80° C.
The frozen samples were sent on dry ice to Pure Honey Technologies for QQQ-quantitation to determine probe and internal control compound amount in each well. For analysis of the obtained data, the ratio of probe to internal control compound was calculated for each well. The assay window was determined by a negative control (DMSO only, no inhibition) and a positive control (100 μM final of CP-008 at a time point where the probe is fully reacted with protein; assigned 100% inhibition) and allowed the calculation of inhibition of probe depletion by the compound of interest.

RALA G23C = molecular target: T2, RALA G23C (Homo sapiens, UniProt P11233, G23C); assay: Rate constant of covalent reaction of competition probes with RALA mutant (mass spectrometry); format: binding
T2 construct: (residues 11-183, either WT or G23C); hexahistidine (TEV-cleavable); made in house; host or cells: Escherichia coli BL21 (DE)
T2 sequence (P11233 11-183 G23C): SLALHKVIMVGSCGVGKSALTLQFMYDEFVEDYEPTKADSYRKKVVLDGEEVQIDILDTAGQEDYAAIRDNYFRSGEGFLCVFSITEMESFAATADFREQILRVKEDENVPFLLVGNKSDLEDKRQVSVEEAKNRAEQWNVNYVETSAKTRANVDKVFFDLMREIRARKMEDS
Description: Hexahistidine-tagged recombinant human RalA (“hexahistidine” disclosed as SEQ ID NO: 49) (residues 11-183, either WT or G23C) was transformed into Escherichia coli (BL21 (DE)). After the bacterial grew to an OD(600) of 0.4-0.6 in Terrific Broth containing 30 mg/L kanamycin at 37° C., induction was carried out at 18° C. using 0.5 mM IPTG and growth was continued at 18° C. for about 18 h. The bacteria were harvested by centrifugation and the obtained pellet was either stored at −80° C. or used freshly for the subsequent steps.
(§1) RALA mutant proteins were produced with one mutation to cysteine at the 23 position (G23C) relative to SEQ ID NO: 8 when optimally aligned. KRAS mutant proteins were produced with one mutation to cysteine at the 12 position (G12C) relative to SEQ ID NO: 1 when optimally aligned. The RALA and KRAS mutants were tested for reactivity (e.g., covalent modification of the mutant) with a panel of competition probes that bind the Switch II binding pocket and covalently modify the substituted amino acid with appropriately placed electrophiles based on modeling/docking studies. One such inhibitor covalently bound to RAS (via G12) is depicted in FIG. 2. Screening was carried out by mass spectrometry on an Agilent RapidFire or ThermoScientific Q Exactive system.

KRAS G12C = molecular target: T3, KRAS G12C (Homo sapiens, UniProt P01116, G12C); assay: Rate constant of covalent reaction of competition probes with KRAS mutant (mass spectrometry); format: binding
T3 construct: made in house
Description: as §1

KRAS D92C/G12D = molecular target: T4, KRAS D92C/G12D (Homo sapiens, UniProt P01116, D92C/G12D); assay: Covalent modification of KRAS mutant by competition probes (TOF mass spectrometry, Agilent RapidFire); format: binding; conditions: probe 10 μM
T4 construct: made in house
Description: (§2) KRAS mutant proteins were produced with one substituted amino acid selected from E62C, D92C, and H95C and with either glycine at the 12 position (WT) or an additional mutation to aspartic acid at the 12 position (G12D) relative to SEQ ID NO: 1 when optimally aligned. These mutations are depicted on an X-ray crystal structure in FIG. 2. These mutants were tested for reactivity (e.g., covalent modification of the KRAS mutant) with a panel of competition probes that bind the Switch II binding pocket and covalently modify the substituted amino acid with appropriately placed electrophiles based on modeling/docking studies. Screening was carried out by time-of-flight (TOF) mass spectrometry on an Agilent RapidFire system. […] Competition probe reactivity with the G12D mutant or other 12 position mutants may be optimized by iterative structural modification and testing.

KRAS D92C/WT = molecular target: T5, KRAS D92C/WT (Homo sapiens, UniProt P01116, D92C); assay: as above; format: binding; conditions: probe 10 μM
T5 construct: made in house
Description: as §2

KRAS E62C/G12D = molecular target: T6, KRAS E62C/G12D (Homo sapiens, UniProt P01116, E62C/G12D); assay: as above; format: binding; conditions: probe 10 μM
T6 construct: made in house
Description: as §2

KRAS E62C/WT = molecular target: T7, KRAS E62C/WT (Homo sapiens, UniProt P01116, E62C); assay: as above; format: binding; conditions: probe 10 μM
T7 construct: made in house
Description: as §2

KRAS H95C/G12D = molecular target: T8, KRAS H95C/G12D (Homo sapiens, UniProt P01116, G12D/H95C); assay: as above; format: binding; conditions: probe 10 μM
T8 construct: made in house
Description: as §2

KRAS H95C/WT = molecular target: T9, KRAS H95C/WT (Homo sapiens, UniProt P01116, H95C); assay: as above; format: binding; conditions: probe 10 μM
T9 construct: made in house
Description: as §2

SMILES: C=CC(=O)N1CCN(C(=O)c2cc(-c3cc(Cl)ccc3Cl)c(Cl)cc2O)CC1 [CP-010]
- Rate Constant for Reaction with Indicated Protein, RALA G23C (RALA G23C): 2.9 M⁻¹ s⁻¹
- Rate Constant for Reaction with Indicated Protein, KRAS G12C (KRAS G12C): 2.3 M⁻¹ s⁻¹

SMILES: C=CC(=O)N1CCN(c2ncnc3cc(Cl)c(-c4ccccc4)cc23)CC1 [CP-014]
- Rate Constant for Reaction with Indicated Protein, RALA G23C (RALA G23C): 4.0 M⁻¹ s⁻¹

SMILES: C=CC(=O)N1CCN(c2ncnc3cc(Cl)c(-c4ccc(O)cc4)cc23)CC1 [CP-017]
- Rate Constant for Reaction with Indicated Protein, RALA G23C (RALA G23C): 6.0 M⁻¹ s⁻¹

SMILES: C=CS(=O)(=O)N1CCC(Nc2nc(N3CCN(C(C)=O)CC3)c3cc(Cl)c(-c4c(O)cccc4F)c(F)c3n2)C1 (centres unmarked) [CP-007]
- % Covalent Modification with Indicated Protein at 6 hr, D92C/G12D (KRAS D92C/G12D): 29%
- % Covalent Modification with Indicated Protein at 6 hr, D92C/WT (KRAS D92C/WT): 99%
- % Covalent Modification with Indicated Protein at 6 hr, E62C/G12D (KRAS E62C/G12D): 19%
- % Covalent Modification with Indicated Protein at 6 hr, E62C/WT (KRAS E62C/WT): 96%
- % Covalent Modification with Indicated Protein at 6 hr, H95C/G12D (KRAS H95C/G12D): 17%
- % Covalent Modification with Indicated Protein at 6 hr, H95C/WT (KRAS H95C/WT): 43%

SMILES: C=CC(=O)N1CCN(c2ncnc3cc(Cl)c(-c4ccc(C#N)cc4)cc23)CC1 [CP-016]
- Rate Constant for Reaction with Indicated Protein, RALA G23C (RALA G23C): 2.6 M⁻¹ s⁻¹

SMILES: C=CC(=O)N1CCN(c2ncnc3cc(Cl)c(-c4ccc(Br)cc4)cc23)CC1 [CP-015]
- Rate Constant for Reaction with Indicated Protein, RALA G23C (RALA G23C): 9.0 M⁻¹ s⁻¹

Continued, values first:

- inhibition of competition probe (CP-008) depletion by D92C K-Ras (K-Ras D92C): less CP-008 is bound to K-Ras
SMILES: CC(=O)N1CCN(c2nc(OCCCN(C)C)nc3c(F)c(-c4cc(O)cc5ccccc45)c(Cl)cc23)CC1 [CP-023, 1-(4-(6-chloro-2-(3-(dimethylamino)propoxy)-8-fluoro-7-(3-hydroxynaphthalen-1-yl)quinazolin-4-yl)piperazin-1-yl)ethanone]

- Rate Constant for Reaction with Indicated Protein, RALA G23C (RALA G23C): 17 M⁻¹ s⁻¹
SMILES: C=CC(=O)N1CCN(c2ncnc3cc(Cl)c(-c4cccs4)cc23)CC1 [CP-018]

- Rate Constant for Reaction with Indicated Protein, RALA G23C (RALA G23C): 6.3 M⁻¹ s⁻¹
SMILES: C=CC(=O)N1CCN(c2ncnc3cc(Cl)c(-c4ccc(Cl)s4)cc23)CC1 [CP-019]

- inhibition of competition probe (CP-008) depletion by D92C K-Ras (K-Ras D92C): less CP-008 is bound to K-Ras
SMILES: CN(C)CCCOc1nc(N2CCN(C=O)CC2)c2cc(Cl)c(-c3cc(O)cc4ccccc34)c(F)c2n1 [CP-024, 4-(6-chloro-2-(3-(dimethylamino)propoxy)-8-fluoro-7-(3-hydroxynaphthalen-1-yl)quinazolin-4-yl)piperazine-1-carbaldehyde]

- Rate Constant for Reaction with Indicated Protein, RALA G23C (RALA G23C): 19 M⁻¹ s⁻¹
SMILES: C=CC(=O)N1CCN(c2ncnc3cc(Cl)c(-c4ccc(C)s4)cc23)CC1 [CP-020]

From patent US9810690B2, “Method for screening inhibitors of Ras” (Araxes Pharma LLC, priority 2015, dated 2017)
